Laboratory results taken from PubChem BioAssay AID1963843 (Molecular Pharmacology Branch, DTP, NCI, 2024).

Test system: 616215-338-R-J1-PDC complex spheroid viability
Assay: Anticancer human tumor 616215-338-R-J1-PDC patient-derived colon adenocarcinoma cell line growth inhibition [POLQ]
Conditions: for IC50: curve of first compound; for viability, T/C: stronger effect = lower value
How it was run: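 Patient-derived tumour cells were co-cultured with HUVEC and mesenchymal stem cells as multicellular spheroids at 37 °C. They were treated with POLQ inhibitors (novobiocin, ART-558, RP6685) alone or combined with other agents. Top concentrations were at or near clinical Cmax (otherwise 10 microM; SN-38 at 1 microM), decreasing in half-log steps.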

[1] = second compound 0.0316 µM, first compound 0.0316 µM
[2] = second compound 0.0316 µM, first compound 0.1 µM
[3] = second compound 0.1 µM, first compound 0.0316 µM
[4] = second compound 0.1 µM, first compound 0.1 µM
[5] = second compound 0.316 µM, first compound 0.0316 µM
[6] = second compound 0.316 µM, first compound 0.1 µM
[7] = second compound 1 µM, first compound 0.0316 µM
[8] = second compound 1 µM, first compound 0.1 µM
[9] = second compound 3.16 µM, first compound 0.0316 µM
[10] = second compound 3.16 µM, first compound 0.1 µM
[11] = second compound 10 µM, first compound 0.0316 µM
[12] = second compound 10 µM, first compound 0.1 µM
[13] = second compound 0.0316 µM, first compound 0.316 µM
[14] = second compound 0.0316 µM, first compound 1 µM
[15] = second compound 0.0316 µM, first compound 3.16 µM
[16] = second compound 0.0316 µM, first compound 10 µM
[17] = second compound 0.1 µM, first compound 0.316 µM
[18] = second compound 0.1 µM, first compound 1 µM
[19] = second compound 0.1 µM, first compound 3.16 µM
[20] = second compound 0.1 µM, first compound 10 µM
[21] = second compound 0.316 µM, first compound 0.316 µM
[22] = second compound 0.316 µM, first compound 1 µM
[23] = second compound 0.316 µM, first compound 3.16 µM
[24] = second compound 0.316 µM, first compound 10 µM
[25] = second compound 1 µM, first compound 0.316 µM
[26] = second compound 1 µM, first compound 1 µM
[27] = second compound 1 µM, first compound 3.16 µM
[28] = second compound 1 µM, first compound 10 µM
[29] = second compound 3.16 µM, first compound 0.316 µM
[30] = second compound 3.16 µM, first compound 1 µM
[31] = second compound 3.16 µM, first compound 3.16 µM
[32] = second compound 3.16 µM, first compound 10 µM
[33] = second compound 10 µM, first compound 0.316 µM
[34] = second compound 10 µM, first compound 1 µM
[35] = second compound 10 µM, first compound 3.16 µM
[36] = second compound 10 µM, first compound 10 µM
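Note: spheroids exposed to compounds for one week before readout.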
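Throughout, for viability, T/C: percent viability relative to DMSO vehicle wells taken as 100%.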

`CC[C@@]1(O)C(=O)OCc2c1cc1n(c2=O)Cc2cc3c(CN(C)C)c(O)ccc3nc2-1` + COC1C(OC(N)=O)C(O)C(Oc2ccc3c(O)c(NC(=O)c4ccc(O)c(CC=C(C)C)c4)c(=O)oc3c2C)OC1(C)C was tested, and the IC50 (second compound 0.0316 µM) was > 100 nM, the IC50 (second compound 0.1 µM) was > 100 nM and the IC50 (second compound 0.316 µM) was > 100 nM. The IC50 (second compound 1 µM) was > 100 nM, the IC50 (second compound 3.16 µM) was > 100 nM and the IC50 (second compound 10 µM) was > 100 nM. The viability, T/C (second compound 0.0316 µM, first compound 0.000316 µM) was 99.3%, the viability, T/C (second compound 0.0316 µM, first compound 0.001 µM) was 97.5% and the viability, T/C (second compound 0.0316 µM, first compound 0.00316 µM) was 104%. It also gave a viability, T/C (second compound 0.0316 µM, first compound 0.01 µM) of 97.6%, a viability, T/C [1] of 102% and a viability, T/C [2] of 81.7%. The viability, T/C (second compound 0.1 µM, first compound 0.000316 µM) was 99.2%, the viability, T/C (second compound 0.1 µM, first compound 0.001 µM) was 112% and the viability, T/C (second compound 0.1 µM, first compound 0.00316 µM) was 99.5%. It also gave a viability, T/C (second compound 0.1 µM, first compound 0.01 µM) of 106%, a viability, T/C [3] of 106% and a viability, T/C [4] of 78.6%. It also gave a viability, T/C (second compound 0.316 µM, first compound 0.000316 µM) of 103%, a viability, T/C (second compound 0.316 µM, first compound 0.001 µM) of 93.5% and a viability, T/C (second compound 0.316 µM, first compound 0.00316 µM) of 95.1%. For the same compound, the viability, T/C (second compound 0.316 µM, first compound 0.01 µM) was 105%, the viability, T/C [5] was 110% and the viability, T/C [6] was 90.3%. The viability, T/C (second compound 1 µM, first compound 0.000316 µM) was 101%, the viability, T/C (second compound 1 µM, first compound 0.001 µM) was 98.8% and the viability, T/C (second compound 1 µM, first compound 0.00316 µM) was 98.5%. The viability, T/C (second compound 1 µM, first compound 0.01 µM) was 101%, the viability, T/C [7] was 101% and the viability, T/C [8] was 75.5%. For the same compound, the viability, T/C (second compound 3.16 µM, first compound 0.000316 µM) was 95.3%, the viability, T/C (second compound 3.16 µM, first compound 0.001 µM) was 101% and the viability, T/C (second compound 3.16 µM, first compound 0.00316 µM) was 99.4%. The viability, T/C (second compound 3.16 µM, first compound 0.01 µM) was 100%, the viability, T/C [9] was 101% and the viability, T/C [10] was 64.9%. For the same compound, the viability, T/C (second compound 10 µM, first compound 0.000316 µM) was 106%, the viability, T/C (second compound 10 µM, first compound 0.001 µM) was 99.5% and the viability, T/C (second compound 10 µM, first compound 0.00316 µM) was 96.2%. The viability, T/C (second compound 10 µM, first compound 0.01 µM) was 100%, the viability, T/C [11] was 93.5% and the viability, T/C [12] was 58.8%.
`COc1cccc2c1C(=O)c1c(O)c3c(c(O)c1C2=O)CC(O)(C(=O)CO)CC3OC1CC(N)C(O)C(C)O1` (stereo unspecified) + Cc1cccc(N(C)C(=O)C2C(O)CCN2c2nc(C)cc(C(F)(F)F)c2C#N)c1 gave an IC50 (second compound 0.0316 µM) of 1070 nM, an IC50 (second compound 0.1 µM) of 1000 nM and an IC50 (second compound 0.316 µM) of 785 nM. The IC50 (second compound 1 µM) was 688 nM, the IC50 (second compound 3.16 µM) was 665 nM and the IC50 (second compound 10 µM) was 823 nM. It also gave a viability, T/C [1] of 95.8%, a viability, T/C [2] of 92.5% and a viability, T/C [13] of 79.8%. For the same compound, the viability, T/C [14] was 55.9%, the viability, T/C [15] was 6.78% and the viability, T/C [16] was 0.53%. The viability, T/C [3] was 109%, the viability, T/C [4] was 92.1% and the viability, T/C [17] was 80%. It also gave a viability, T/C [18] of 57.5%, a viability, T/C [19] of 6.89% and a viability, T/C [20] of 0.26%. The viability, T/C [5] was 106%, the viability, T/C [6] was 83.4% and the viability, T/C [21] was 69.2%. It also gave a viability, T/C [22] of 56.7%, a viability, T/C [23] of 3.48% and a viability, T/C [24] of 0.22%. It also gave a viability, T/C [7] of 111%, a viability, T/C [8] of 85.8% and a viability, T/C [25] of 71.2%. It also gave a viability, T/C [26] of 48.3%, a viability, T/C [27] of 3.44% and a viability, T/C [28] of 0.22%. The viability, T/C [9] was 96.6%, the viability, T/C [10] was 79.9% and the viability, T/C [29] was 65.5%. It also gave a viability, T/C [30] of 48.9%, a viability, T/C [31] of 1.58% and a viability, T/C [32] of 0.25%. It also gave a viability, T/C [11] of 83.2%, a viability, T/C [12] of 82.6% and a viability, T/C [33] of 76.7%. For the same compound, the viability, T/C [34] was 44.7%, the viability, T/C [35] was 0.88% and the viability, T/C [36] was 0.31%.
For `C#Cc1c(F)ccc2cc(O)cc(-c3ncc4c(N5CC6CCC(C5)N6)nc(OCC56CCCN5CC(F)C6)nc4c3F)c12` (stereo unspecified) + Cc1cccc(N(C)C(=O)C2C(O)CCN2c2nc(C)cc(C(F)(F)F)c2C#N)c1, the IC50 (second compound 0.0316 µM) was > 10000 nM, the IC50 (second compound 0.1 µM) was > 10000 nM and the IC50 (second compound 0.316 µM) was > 10000 nM. For the same compound, the IC50 (second compound 1 µM) was > 10000 nM, the IC50 (second compound 3.16 µM) was > 10000 nM and the IC50 (second compound 10 µM) was > 10000 nM. For the same compound, the viability, T/C [1] was 88.6%, the viability, T/C [2] was 109% and the viability, T/C [13] was 94.2%. It also gave a viability, T/C [14] of 101%, a viability, T/C [15] of 113% and a viability, T/C [16] of 71.8%. It also gave a viability, T/C [3] of 101%, a viability, T/C [4] of 110% and a viability, T/C [17] of 103%. It also gave a viability, T/C [18] of 109%, a viability, T/C [19] of 103% and a viability, T/C [20] of 73.9%. It also gave a viability, T/C [5] of 99.8%, a viability, T/C [6] of 101% and a viability, T/C [21] of 98.1%. The viability, T/C [22] was 99.6%, the viability, T/C [23] was 91.8% and the viability, T/C [24] was 69.8%. The viability, T/C [7] was 103%, the viability, T/C [8] was 107% and the viability, T/C [25] was 94.9%. It also gave a viability, T/C [26] of 108%, a viability, T/C [27] of 104% and a viability, T/C [28] of 64.3%. For the same compound, the viability, T/C [9] was 104%, the viability, T/C [10] was 99.2% and the viability, T/C [29] was 101%. It also gave a viability, T/C [30] of 101%, a viability, T/C [31] of 103% and a viability, T/C [32] of 66.7%. For the same compound, the viability, T/C [11] was 101%, the viability, T/C [12] was 101% and the viability, T/C [33] was 108%. The viability, T/C [34] was 96.3%, the viability, T/C [35] was 73.9% and the viability, T/C [36] was 67.8%.
